Data as given in ChEMBL document CHEMBL5576096, “Triplinones A-H: Anti-Inflammatory Arylalkenyl α,β-Unsaturated-δ-Lactones Isolated from the Leaves of Australian Rainforest Plant Cryptocarya triplinervis (Lauraceae)” (J Nat Prod, 2024).
pIC50: −log10 of the molar value.

How the values were obtained:
[1] = Inhibition of TNF-alpha production in LPS/IFNgamma-stimulated mouse RAW264.7 cells preincubated for 1 hr followed by LPS/IFNgamma addition and measured after 24 hrs by ELISA; format: functional, cell-based
[2] = Cytotoxicity against LPS/IFNgamma-stimulated mouse RAW264.7 cells assessed as reduction in cell viability after 24 hrs by Alamar Blue assay; format: toxicity, cell-based; conditions: LPS/IFNgamma-stimulated RAW264.7 cells, read-out: LC50
[3] = test system: RAW264.7; test: Inhibition of NO production in LPS/IFNgamma-stimulated mouse RAW264.7 cells preincubated for 1 hr followed by LPS/IFNgamma addition and measured after 24 hrs by griess reagent based assay; format: functional, cell-based
[4] = Therapeutic index, ratio of LC50 for cytotoxicity against LPS/IFNgamma-stimulated mouse RAW264.7 cells to IC50 for inhibition of NO production in LPS/IFNgamma-stimulated mouse RAW264.7 cells; format: toxicity, cell-based; conditions: LPS/IFNgamma-stimulated RAW264.7 cells, read-out: Ratio LC50/IC50

Row | Structure (SMILES) | pIC50 [1] | CC50 at 24 h [2] [µM] | pIC50 [3] | selectivity ratio [4]
1 | O=C1C=CC[C@H](CCC[C@H](O)C[C@@H](O)CC/C=C/c2ccccc2)O1 | 4.56 | 33.4 | 5.22 | 5.6
2 | O=C1C=CC[C@H](C[C@@H](O)CCC[C@H](O)C[C@@H](O)CC/C=C/c2ccccc2)O1 | 4.54 | 41.3 | 4.82 | 2.8
3 | O=C1C=CC[C@H](C[C@H](O)C[C@@H](O)CC/C=C/c2ccccc2)O1 | 4.53 | 37.6 | 5.25 | 6.8
4 | O=C1C=CC[C@H](C[C@@H](O)C[C@H](O)C[C@@H](O)CC/C=C/c2ccccc2)O1 | < 3.56 | > 278 | 3.99 | > 2.7
5 | O=C1C=CC[C@H](/C=C/C[C@H](O)C[C@@H](O)CC/C=C/c2ccccc2)O1 | 4.55 | 79.8 | 5.14 | 10.9
6 | O=C1C=CC[C@H](/C=C/C=C/C[C@H](O)C[C@@H](O)CC/C=C/c2ccccc2)O1 | 4.55 | 41.3 | 5.27 | 7.6
7 | CC(=O)O[C@H](C[C@@H](O)CC/C=C/c1ccccc1)C[C@H]1CC=CC(=O)O1 | 4.77 | 97.9 | 4.99 | 9.5
8 | O=C1C=CC[C@H](CC(O)/C=C/C[C@H](O)C[C@@H](O)CC/C=C/c2ccccc2)O1 (stereo partly specified) | 4.41 | 159 | 4.19 | 2.5
9 | COc1cc(/C=C/C(=O)CC(=O)/C=C/c2ccc(O)c(OC)c2)ccc1O [CURCUMIN] | 4.51 | 73 | 4.65 | 3.2
